Results published in patent US4127656A, “Method of inhibiting lipogensis with 3-(benzoyl)oxiranecarboxamides” (Shell Oil Company, priority 1978, dated 1978).

Each molecule was assayed on lipogenesis (liver) (assay: inhibition of glucose incorporation into lipid in chicken liver tissue slices). Details: 100 micrograms per milliliter, 37° C., 2 hours.
Type: cell-based
Text: (§1) The manner in which they cause this effect is not known with certainty; it is believed that they interfere with the synthesis of fatty acids in the tissues. Their effectiveness for this purpose has been ascertained by immersing samples of animal liver or adipose tissue in a liquid medium containing radioactive glucose and the test chemical, for a period of time, then isolating the lipid from the treated tissues and determining the up-take of the radioactive carbon by means of scintillation counting techniques. These tests were conducted in both liver and adipose tissue, because in some animals the primary site of lipogenesis appears to be liver tissue, while in others it appears to be adipose tissue. The test animals were pigs, chickens and sheep.
(§2) Described in more detail, the tests were conducted according to the following general procedure: […]
(§3) The incubation was terminated by addition of 0.25 milliliter of 1 N sulfuric acid. […] The extracts were washed according to Folch et al. (J. Biol. Chem., 226, 497-509, (1957)), air dried, and counted in a liquid scintillation counter with 15 milliliters of counting fluid (two parts toluene containing 0.4% w/v New England Nuclear Omnifluor:one part Triton X-100). […] From the date obtained were calculated the percent inhibition of lipid synthesis by the test compounds in each case. […]

Row | SMILES | inhibition of glucose incorporation into the liver [%]
1 | NC(=O)[C@@H]1O[C@H]1C(=O)c1ccc(Cl)cc1 (relative stereo) [Compound 1, 3-(4-chlorobenzoyl)oxiranecarboxamide(trans)] | 54

What follows are molecules tested on lipogenesis (swine adipose tissue) (assay: inhibition of lipogenesis from glucose-U-14C in pig adipose tissue slices (percent inhibition of lipid synthesis)). Details: Sus scrofa, 100 micrograms per milliliter, 37° C., 2 hours, triplicate, read-out: Percent Inhibition (of lipogenesis compared to control).
Type: cell-based, pig (swine)
Text: as §1
Described in more detail, the tests were conducted according to the following general procedure:
Tissue slices (200 milligrams for liver and 150 milligrams for adipose tissue) were incubated at 37° C. for 2 hours with shaking in 3 milliliters of Krebs-Ringer bicarbonate solution containing one-half the normal calcium ion concentration, 60 micromoles of glucose, 0.5 microCurie of glucose-U^14 C., 300 microunits of insulin, and 5% dimethyl sulfoxide (DMSO). The test compounds were added as a suspension in DMSO and were present at a concentration of 100 micrograms per milliliter of the incubation mixture.
The incubation was terminated by addition of 0.25 milliliter of 1 N sulfuric acid. The resulting mixture was extracted with a total of 25 milliliters of chloroform:methanol (2:1, v/v). The extracts were washed according to Folch et al. (J. Biol. Chem., 226, 497-509, (1957)), air dried, and counted in a liquid scintillation counter with 15 milliliters of counting fluid (two parts toluene containing 0.4% w/v New England Nuclear Omnifluor:one part Triton X-100). The tests were conducted in triplicate and were accompanied by control tests in which all ingredients,proportions and conditions were the same except that no test compound was included. From the date obtained were calculated the percent inhibition of lipid synthesis by the test compounds in each case.
Compound 1 was tested with respect to all of the animals. The other compounds were tested only with respect to the pig.
From these and other tests, it has been established that in pigs there is little lipogenic activity in the liver tissue. From these and other tests, it also has been established that swine adipose tissue utilizes glucose for lipogenesis, and to be the major site of fatty acid synthesis. The data obtained from the tests using adipose tissue and glucose are set out in Table 1, as the percent inhibition of lipogenesis compared to the results obtained in the control tests wherein only the test compound was omitted.

Row | SMILES | inhibition at 100 µg/mL [%]
2 | NC(=O)[C@@H]1O[C@H]1C(=O)c1ccc(Cl)cc1 (relative stereo) [Compound 1, 3-(4-chlorobenzoyl)oxiranecarboxamide(trans)] | 94
3 | CN(C)C(=O)[C@@H]1O[C@H]1C(=O)c1ccc(Cl)cc1 (relative stereo) [Compound 2, 3-(4-chlorobenzoyl)-N,N-dimethyloxiranecarboxamide(trans)] | 70
4 | CNC(=O)[C@@H]1O[C@H]1C(=O)c1ccc(Cl)cc1 (relative stereo) [Compound 3, 3-(4-chlorobenzoyl)-N-methyloxiranecarboxamide(trans)] | 96
5 | NC(=O)[C@@H]1O[C@H]1C(=O)c1ccc(Cl)c(Cl)c1 (relative stereo) [Compound 4, 3-(3,4-dichlorobenzoyl)oxiranecarboxamide(trans)] | 96
6 | Cc1ccc(C(=O)[C@@H]2O[C@H]2C(N)=O)cc1 (relative stereo) [Compound 5, 3-(4-methylbenzoyl)oxiranecarboxamide(trans)] | 89
7 | NC(=O)[C@@H]1O[C@H]1C(=O)c1ccccc1 (relative stereo) [Compound 6, 3-(benzoyl)oxiranecarboxamide(trans)] | 91
8 | CC(C)NC(=O)[C@@H]1O[C@H]1C(=O)c1ccc(Cl)cc1 (relative stereo) [Compound 7, 3-(4-chlorobenzoyl)-N-(1-methylethyl)oxiranecarboxamide(trans)] | 90
9 | NC(=O)[C@@H]1O[C@H]1C(=O)c1cccc([N+](=O)[O-])c1 (relative stereo) [Compound 8, 3-(3-nitrobenzoyl)oxiranecarboxamide(trans)] | 96
10 | C=CCNC(=O)[C@@H]1O[C@H]1C(=O)c1ccc(Cl)cc1 (relative stereo) [Compound 9, 3-(4-chlorobenzoyl)-N-(2-propenyl)oxiranecarboxamide(trans)] | 94
11 | O=C(c1ccc(Cl)cc1)[C@@H]1O[C@H]1C(=O)N1CCOCC1 (relative stereo) [Compound 10, (4-chlorophenyl) (3-(4-morpholinylcarbonyl)oxiranyl)methanone(trans)] | 77
12 | CC(=O)Nc1ccc(C(=O)[C@@H]2O[C@H]2C(N)=O)cc1 (relative stereo) [Compound 11, 3-(4-acetamidobenzoyl)oxiranecarboxamide(trans)] | 23
13 | COc1ccc(C(=O)[C@@H]2O[C@H]2C(N)=O)cc1 (relative stereo) [Compound 12, 3-(4-methoxybenzoyl)oxiranecarboxamide(trans)] | 64
14 | C#CCNC(=O)[C@@H]1O[C@H]1C(=O)c1ccc(Cl)cc1 (relative stereo) [Compound 13, 3-(4-chlorobenzoyl)-N-(2-propynyl)oxiranecarboxamide(trans)] | 87
15 | NC(=O)[C@@H]1O[C@H]1C(=O)c1ccc(Br)cc1 (relative stereo) [Compound 14, 3-(4-bromobenzoyl)oxiranecarboxamide(trans)] | 90
16 | NC(=O)[C@@H]1O[C@H]1C(=O)c1ccc(F)cc1 (relative stereo) [Compound 15, 3-(4-fluorobenzoyl)oxiranecarboxamide(trans)] | 90
17 | NC(=O)[C@@H]1O[C@H]1C(=O)c1ccc(Cl)cc1Cl (relative stereo) [Compound 16, 3-(2,4-dichlorobenzoyl)oxiranecarboxamide(trans)] | 91
18 | NC(=O)[C@@H]1O[C@H]1C(=O)c1cccc(C(F)(F)F)c1 (relative stereo) [Compound 17, 3-(3-(trifluoromethyl)benzoyl)oxiranecarboxamide(trans)] | 94

These molecules were tested on lipogenesis (liver) (assay: inhibition of glucose incorporation into lipid in sheep liver tissue slices). Details: 100 micrograms per milliliter, 37° C., 2 hours.
Type: cell-based
Text: as §1, §2, §3

Row | SMILES | inhibition of glucose incorporation in the liver [%]
19 | NC(=O)[C@@H]1O[C@H]1C(=O)c1ccc(Cl)cc1 (relative stereo) [Compound 1, 3-(4-chlorobenzoyl)oxiranecarboxamide(trans)] | 15

What follows are molecules tested on lipogenesis (adipose tissue) (assay: inhibition of glucose incorporation into lipid in sheep adipose tissue slices). Details: 100 micrograms per milliliter, 37° C., 2 hours.
Type: cell-based
Text: as §1, §2, §3

Row | SMILES | inhibition of glucose incorporation in adipose tissue [%]
20 | NC(=O)[C@@H]1O[C@H]1C(=O)c1ccc(Cl)cc1 (relative stereo) [Compound 1, 3-(4-chlorobenzoyl)oxiranecarboxamide(trans)] | 65
